Measurements published in patent US8329422B2, “Analysis of circulating tumor cells, fragments, and debris” (Veridex LLC, priority 2001, dated 2012).

Experiments:
Type in all cases: cell-based
LnCaP cells [1] = experiment: CELLSPOTTER analysis of paclitaxel treated LnCaP cells spiked into blood of healthy donors (model to mimic tumor cell death); details: immunomagnetically selected
Description: (§1) To investigate the effect of apoptosis induced by cytotoxic agents on flow cytometric and CELLSPOTTER® analysis of CTC, cells from the prostate cell line LnCaP were cultured in the presence or absence of 40 nM paclitaxel for 72 hours. […] The treated and untreated LnCaP cells were spiked into blood of healthy donors, selected by the ferrofluid methods described above, and analyzed by the CELLSPOTTER® system.

[2] = Viability of LnCaP cells by trypan blue exclusion after culture with paclitaxel; details: human, LnCaP prostate cell line; LnCaP cells cultured with 40 nM paclitaxel for 72 hours
Description: as §1

LnCaP cells [3] = experiment: M30 Cytodeath antibody staining of caspase-cleaved cytokeratin 18; details: paclitaxel treated LnCaP cells
Description: Cells of the prostate cell line LnCaP were cultured with or without paclitaxel and spiked into blood of healthy donors.

Question: For `CC(=O)O[C@H]1C(=O)[C@@]2(C)[C@H]([C@H](OC(=O)c3ccccc3)[C@]3(O)C[C@H](OC(=O)[C@H](O)[C@@H](NC(=O)c4ccccc4)c4ccccc4)C(C)=C1C3(C)C)[C@]1(OC(C)=O)CO[C@@H]1C[C@@H]2O` [paclitaxel], which “signs of apoptosis (morphology, punctate cytokeratin staining)” value (LnCaP cells [1]) is on record?
Answer: Its value is “displayed signs of apoptosis”.

Question: And the viability at 72 h, 40 nM [2]?
Answer: Its viability at 72 h, 40 nM is 33%.

Question: And the “staining with M30 Cytodeath antibody (early apoptosis)” value (LnCaP cells [3])?
Answer: The value was “stained with M30”.
